Measured values as given in patent US11963995B2, “Methods comprising desmopressin” (Ferring B.V., priority 2008, dated 2024).

System: adult patients with nocturia
Experiment: Duration of initial period of undisturbed sleep, change from baseline to Day 28 (Part I)
Format: in vivo, human
Settings: for Change from baseline to final visit (Day 28) in duration of initial period of undisturbed sleep, mean / Change from baseline to final visit (Day 28) in duration of initial period of undisturbed sleep, median: ITT, Part I; for median increase in initial period of sleep: baseline to Day 28
Description: As used herein, the term “first sleep period” refers to the time elapsed from bedtime to either first void or morning arising.
All treatments were administered orally once per night approximately 1 hour prior to bedtime; subjects were instructed to limit their fluid intake prior to drug self-administration. […] Randomization was to be stratified by age (<65, ≥65 years) and by the absence/presence of nocturnal polyuria, defined as a ratio of nighttime urine volume/24-hour urine volume 33%. To achieve the desired number of subjects within each stratum, enrollment of subjects in a particular stratum (age and/or presence/absence of nocturnal polyuria) could be halted. If this was necessary, all investigative sites were to be informed in writing at least 1 week in advance to stop screening in a population of subjects.
The secondary efficacy endpoints were: (1) durability of effect achieved in Part I; (2) change in initial period of undisturbed sleep, defined as the elapsed time in minutes from going to bed with the intention of sleeping to the time of awakening for the first nocturnal void; and (3) change in duration of total sleep time. Additional secondary endpoints were collected, e.g., change in nocturia-specific quality of life as assessed by scores on the International Consultation on Incontinence Modular Questionnaire—Noctuira and the Noctuira Quality of Life Questionnaire, change in quality of sleep as assessed by the global score of the Pittsburgh Sleep Quality Index, and change in overall quality of life as assessed by the short form—12v2. A description of the additional secondary efficacy endpoints and their accompanying data are not provided herein.
Missing values concerning number of nocturnal voids at Day 8, Day 15, Day 22, and Day 28 in Part I were imputed using last observation carried forward (LOCF). Missing values concerning sleep disturbance and urine volume (for average 24-hour urine volume and average nocturnal urine volume) were not imputed.

[1] = 10 ug, all males with monitoring
[2] = 10 ug, females over 50 years of age
[3] = 10 ug, females over 65 years of age
[4] = 25 ug, all males with monitoring
[5] = 25 ug, females over 50 years of age
[6] = 25 ug, females over 65 years of age
[7] = 50 ug, all males with monitoring
[8] = 50 ug, females over 50 years of age
[9] = 50 ug, females over 65 years of age
[10] = 100 ug, all males with monitoring
[11] = 100 ug, females over 50 years of age
[12] = 100 ug, females over 65 years of age

Structure (SMILES): NC(=O)CC[C@@H]1NC(=O)[C@H](Cc2ccccc2)NC(=O)[C@H](Cc2ccc(O)cc2)NC(=O)CCSSC[C@@H](C(=O)N2CCC[C@H]2C(=O)N[C@H](CCCN=C(N)N)C(=O)NCC(N)=O)NC(=O)[C@H](CC(N)=O)NC1=O [desmopressin]
- Change from baseline to final visit (Day 28) in duration of initial period of undisturbed sleep, mean (10 ug, all females): 54 min
- Change from baseline to final visit (Day 28) in duration of initial period of undisturbed sleep, median (10 ug, all females): 46 min
- Change from baseline to final visit (Day 28) in duration of initial period of undisturbed sleep, mean (10 ug, all groups): 51 min
- Change from baseline to final visit (Day 28) in duration of initial period of undisturbed sleep, median (10 ug, all groups): 51 min
- Change from baseline to final visit (Day 28) in duration of initial period of undisturbed sleep, mean [1]: 54 min
- Change from baseline to final visit (Day 28) in duration of initial period of undisturbed sleep, median [1]: 59 min
- Change from baseline to final visit (Day 28) in duration of initial period of undisturbed sleep, mean (10 ug, all males): 48 min
- Change from baseline to final visit (Day 28) in duration of initial period of undisturbed sleep, median (10 ug, all males): 56 min
- Change from baseline to final visit (Day 28) in duration of initial period of undisturbed sleep, mean [2]: 33 min
- Change from baseline to final visit (Day 28) in duration of initial period of undisturbed sleep, median [2]: 27 min
- Change from baseline to final visit (Day 28) in duration of initial period of undisturbed sleep, mean [3]: 18 min
- Change from baseline to final visit (Day 28) in duration of initial period of undisturbed sleep, median [3]: 46 min
- Change from baseline to final visit (Day 28) in duration of initial period of undisturbed sleep, mean (25 ug, all females): 113 min
- Change from baseline to final visit (Day 28) in duration of initial period of undisturbed sleep, median (25 ug, all females): 95 min
- Change from baseline to final visit (Day 28) in duration of initial period of undisturbed sleep, mean (25 ug, all groups): 83 min
- Change from baseline to final visit (Day 28) in duration of initial period of undisturbed sleep, median (25 ug, all groups): 62 min
- Change from baseline to final visit (Day 28) in duration of initial period of undisturbed sleep, mean [4]: 57 min
- Change from baseline to final visit (Day 28) in duration of initial period of undisturbed sleep, median [4]: 54 min
- Change from baseline to final visit (Day 28) in duration of initial period of undisturbed sleep, mean (25 ug, all males): 61 min
- Change from baseline to final visit (Day 28) in duration of initial period of undisturbed sleep, median (25 ug, all males): 55 min
- median increase in initial period of sleep (25 μg): approximately 1 hour
- Change from baseline to final visit (Day 28) in duration of initial period of undisturbed sleep, mean [5]: 122 min
- Change from baseline to final visit (Day 28) in duration of initial period of undisturbed sleep, median [5]: 96 min
- Change from baseline to final visit (Day 28) in duration of initial period of undisturbed sleep, mean [6]: 131 min
- Change from baseline to final visit (Day 28) in duration of initial period of undisturbed sleep, median [6]: 113 min
- Change from baseline to final visit (Day 28) in duration of initial period of undisturbed sleep, mean (50 ug, all females): 98 min
- Change from baseline to final visit (Day 28) in duration of initial period of undisturbed sleep, median (50 ug, all females): 70 min
- Change from baseline to final visit (Day 28) in duration of initial period of undisturbed sleep, mean (50 ug, all groups): 85 min
- Change from baseline to final visit (Day 28) in duration of initial period of undisturbed sleep, median (50 ug, all groups): 63 min
- Change from baseline to final visit (Day 28) in duration of initial period of undisturbed sleep, mean [7]: 64 min
- Change from baseline to final visit (Day 28) in duration of initial period of undisturbed sleep, median [7]: 59 min
- Change from baseline to final visit (Day 28) in duration of initial period of undisturbed sleep, mean (50 ug, all males): 72 min
- Change from baseline to final visit (Day 28) in duration of initial period of undisturbed sleep, median (50 ug, all males): 55 min
- median increase in initial period of sleep (50 μg): approximately 1 hour
- Change from baseline to final visit (Day 28) in duration of initial period of undisturbed sleep, mean [8]: 83 min
- Change from baseline to final visit (Day 28) in duration of initial period of undisturbed sleep, median [8]: 63 min
- Change from baseline to final visit (Day 28) in duration of initial period of undisturbed sleep, mean [9]: 42 min
- Change from baseline to final visit (Day 28) in duration of initial period of undisturbed sleep, median [9]: 30 min
- Change from baseline to final visit (Day 28) in duration of initial period of undisturbed sleep, mean (100 ug, all females): 114 min
- Change from baseline to final visit (Day 28) in duration of initial period of undisturbed sleep, median (100 ug, all females): 93 min
- Change from baseline to final visit (Day 28) in duration of initial period of undisturbed sleep, mean (100 ug, all groups): 107 min
- Change from baseline to final visit (Day 28) in duration of initial period of undisturbed sleep, median (100 ug, all groups): 96 min
- Change from baseline to final visit (Day 28) in duration of initial period of undisturbed sleep, mean [10]: 108 min
- Change from baseline to final visit (Day 28) in duration of initial period of undisturbed sleep, median [10]: 116 min
- Change from baseline to final visit (Day 28) in duration of initial period of undisturbed sleep, mean (100 ug, all males): 100 min
- Change from baseline to final visit (Day 28) in duration of initial period of undisturbed sleep, median (100 ug, all males): 101 min
- Change from baseline to final visit (Day 28) in duration of initial period of undisturbed sleep, mean [11]: 108 min
- Change from baseline to final visit (Day 28) in duration of initial period of undisturbed sleep, median [11]: 89 min
- Change from baseline to final visit (Day 28) in duration of initial period of undisturbed sleep, mean [12]: 81 min
- Change from baseline to final visit (Day 28) in duration of initial period of undisturbed sleep, median [12]: 70 min
